Data: PubChem BioAssay (NCI)
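These data come from cells grown in 96-well plates and exposed to compound for 48 hours at five concentrations. GI50 is the concentration that inhibits growth by half. TGI: concentration producing complete growth inhibition.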

Key:
Assay in all cases: growth of human tumour cells (NCI), 48 h
RPMI-8226 leukemia = system: RPMI-8226 leukemia
K-562 leukemia = system: K-562 leukemia
UO-31 renal = system: UO-31 renal
EKVX NSCLC = system: EKVX NSCLC
HOP-92 NSCLC = system: HOP-92 NSCLC
SW-620 colon = system: SW-620 colon
UACC-257 melanoma = system: UACC-257 melanoma
ACHN renal = system: ACHN renal
TK-10 renal = system: TK-10 renal
HOP-62 NSCLC = system: HOP-62 NSCLC
T-47D breast = system: T-47D breast
786-0 renal = system: 786-0 renal
NCI-H522 lung = system: NCI-H522 lung
SK-MEL-5 melanoma = system: SK-MEL-5 melanoma
OVCAR-3 ovarian = system: OVCAR-3 ovarian
MALME-3M melanoma = system: MALME-3M melanoma
SN12C renal = system: SN12C renal
HCC-2998 colon = system: HCC-2998 colon
CAKI-1 renal = system: CAKI-1 renal
HL-60(TB) leukemia = system: HL-60(TB) leukemia
HCT-116 colon = system: HCT-116 colon
A549 NSCLC = system: A549 NSCLC
DU-145 prostate = system: DU-145 prostate
OVCAR-4 ovarian = system: OVCAR-4 ovarian
HT29 colon = system: HT29 colon
LOX IMVI melanoma = system: LOX IMVI melanoma
CCRF-CEM leukemia = system: CCRF-CEM leukemia
SK-MEL-28 melanoma = system: SK-MEL-28 melanoma
MCF7 breast = system: MCF7 breast
MOLT-4 leukemia = system: MOLT-4 leukemia
RXF 393 renal = system: RXF 393 renal
NCI-H226 lung = system: NCI-H226 lung
NCI-H460 lung = system: NCI-H460 lung
SR leukemia = system: SR leukemia
SK-OV-3 ovarian = system: SK-OV-3 ovarian
BT-549 breast = system: BT-549 breast
UACC-62 melanoma = system: UACC-62 melanoma
MDA-N = system: MDA-N
SNB-75 CNS = system: SNB-75 CNS
NCI/ADR-RES ovarian = system: NCI/ADR-RES ovarian
SF-268 CNS = system: SF-268 CNS
HCT-15 colon = system: HCT-15 colon
A498 renal = system: A498 renal
NCI-H23 lung = system: NCI-H23 lung
COLO 205 colon = system: COLO 205 colon
M14 melanoma = system: M14 melanoma
MDA-MB-435 = system: MDA-MB-435
SK-MEL-2 melanoma = system: SK-MEL-2 melanoma
OVCAR-8 ovarian = system: OVCAR-8 ovarian
SNB-19 CNS = system: SNB-19 CNS
OVCAR-5 ovarian = system: OVCAR-5 ovarian
KM12 colon = system: KM12 colon
SF-295 CNS = system: SF-295 CNS
U251 CNS = system: U251 CNS
PC-3 prostate = system: PC-3 prostate
SF-539 CNS = system: SF-539 CNS
IGROV1 ovarian = system: IGROV1 ovarian
MDA-MB-231 breast = system: MDA-MB-231 breast

SMILES: COc1cc2c(c(OC)c1OC)-c1ccc(SC)c(=O)cc1[C@@H](O)CC2
- TGI (RPMI-8226 leukemia): > 100 µM
- TGI (K-562 leukemia): > 100 µM
- TGI (UO-31 renal): > 100 µM
- GI50 (EKVX NSCLC): > 100 µM
- GI50 (HOP-92 NSCLC): > 100 µM
- TGI (HOP-92 NSCLC): > 100 µM
- TGI (SW-620 colon): > 100 µM
- TGI (UACC-257 melanoma): > 100 µM
- TGI (ACHN renal): > 100 µM
- GI50 (TK-10 renal): > 100 µM
- TGI (TK-10 renal): > 100 µM
- TGI (HOP-62 NSCLC): > 100 µM
- GI50 (T-47D breast): > 100 µM
- TGI (T-47D breast): > 100 µM
- TGI (786-0 renal): > 100 µM
- GI50 (NCI-H522 lung): 0.0116 µM
- GI50 (SK-MEL-5 melanoma): 0.000311 µM
- GI50 (OVCAR-3 ovarian): 0.000322 µM
- GI50 (MALME-3M melanoma): 0.028 µM
- TGI (SN12C renal): > 100 µM
- TGI (HCC-2998 colon): > 100 µM
- TGI (CAKI-1 renal): > 100 µM
- GI50 (HL-60(TB) leukemia): 6.13 µM
- TGI (HCT-116 colon): > 100 µM
- TGI (A549 NSCLC): > 100 µM
- TGI (DU-145 prostate): > 100 µM
- GI50 (OVCAR-4 ovarian): > 100 µM
- TGI (OVCAR-4 ovarian): > 100 µM
- TGI (HT29 colon): 0.0703 µM
- TGI (LOX IMVI melanoma): > 100 µM
- TGI (CCRF-CEM leukemia): > 100 µM
- GI50 (SK-MEL-28 melanoma): > 100 µM
- TGI (SK-MEL-28 melanoma): > 100 µM
- TGI (MCF7 breast): > 100 µM
- TGI (MOLT-4 leukemia): > 100 µM
- GI50 (RXF 393 renal): > 100 µM
- TGI (RXF 393 renal): > 100 µM
- TGI (NCI-H226 lung): 0.0169 µM
- TGI (NCI-H460 lung): > 100 µM
- GI50 (SR leukemia): 0.0667 µM
- GI50 (SK-OV-3 ovarian): > 100 µM
- GI50 (BT-549 breast): 98.4 µM
- TGI (UACC-62 melanoma): > 100 µM
- TGI (MDA-N): 0.000318 µM
- TGI (SNB-75 CNS): > 100 µM
- TGI (NCI/ADR-RES ovarian): 0.302 µM
- GI50 (SF-268 CNS): 0.0153 µM

SMILES: O=C1O/C(=C/c2ccccc2)C(c2ccccc2)=C1O
- TGI (HCT-15 colon): > 100 µM
- TGI (RPMI-8226 leukemia): 83.3 µM
- TGI (A498 renal): 85.6 µM
- TGI (K-562 leukemia): > 100 µM
- TGI (UO-31 renal): 88.1 µM
- TGI (EKVX NSCLC): > 100 µM
- TGI (NCI-H23 lung): 44.7 µM
- TGI (HOP-92 NSCLC): > 100 µM
- TGI (COLO 205 colon): > 100 µM
- TGI (SW-620 colon): > 100 µM
- TGI (M14 melanoma): > 100 µM
- TGI (MDA-MB-435): 89.1 µM
- TGI (UACC-257 melanoma): > 100 µM
- TGI (ACHN renal): > 100 µM
- TGI (TK-10 renal): > 100 µM
- TGI (HOP-62 NSCLC): 94.3 µM
- TGI (T-47D breast): 74.2 µM
- TGI (786-0 renal): > 100 µM
- TGI (SK-MEL-2 melanoma): 31.6 µM
- TGI (OVCAR-8 ovarian): > 100 µM
- TGI (NCI-H522 lung): > 100 µM
- TGI (SK-MEL-5 melanoma): 80.9 µM
- TGI (OVCAR-3 ovarian): 44.1 µM
- TGI (MALME-3M melanoma): > 100 µM
- TGI (SNB-19 CNS): > 100 µM
- TGI (SN12C renal): > 100 µM
- TGI (HCC-2998 colon): > 100 µM
- TGI (CAKI-1 renal): > 100 µM
- TGI (HL-60(TB) leukemia): 48.3 µM
- TGI (OVCAR-5 ovarian): > 100 µM
- TGI (HCT-116 colon): > 100 µM
- TGI (A549 NSCLC): > 100 µM
- TGI (KM12 colon): > 100 µM
- TGI (SF-295 CNS): > 100 µM
- TGI (DU-145 prostate): 97 µM
- TGI (OVCAR-4 ovarian): > 100 µM
- TGI (HT29 colon): > 100 µM
- TGI (LOX IMVI melanoma): > 100 µM
- TGI (CCRF-CEM leukemia): > 100 µM
- TGI (SK-MEL-28 melanoma): > 100 µM
- TGI (MCF7 breast): > 100 µM
- TGI (U251 CNS): 82.7 µM
- TGI (MOLT-4 leukemia): > 100 µM
- TGI (PC-3 prostate): > 100 µM
- TGI (RXF 393 renal): 70.3 µM
- TGI (NCI-H226 lung): > 100 µM
- TGI (SF-539 CNS): > 100 µM
- TGI (SK-OV-3 ovarian): > 100 µM
- TGI (IGROV1 ovarian): > 100 µM
- TGI (UACC-62 melanoma): 33.8 µM
- TGI (MDA-N): > 100 µM
- TGI (SNB-75 CNS): > 100 µM
- TGI (MDA-MB-231 breast): > 100 µM
- TGI (NCI/ADR-RES ovarian): > 100 µM
